This assay has as its target T1, TLR2 (Homo sapiens, UniProt O60603).
T1 construct: host or cells: HEK293-TLR2
The assay can be described thus: Pam3CSK4-induced IL-8 secretion in HEK293-TLR2 cells (IL-8 ELISA). Type of assay: cell-based. To be noted: compound 1 hour then co-treated with 50 nM Pam3CSK4, FIG. 15. Here is the method: HEK293-TLR2 (expressed at endogenous levels of TLR1) and HEK293-Null cell lines were cultured in 96-well tissue culture plates (BD Biosciences) at a density of 1×10^4 cells/wells, 37° C., 95% air and 5% CO2 for 24 hours. In order to determine the agonist activity, a cell stimulation was achieved by treatment with 50 μM of compound and 50 nM of Pam3CSK4 (Invivogen, San Diego, Calif., USA). In order to determine the antagonist activity, cells were treated with various concentrations of compound for 1 hour and then co-treated with 50 nM of Pam3CSK4. The next day, IL-8 secretion was quantified by human IL-8 ELISA Ready-SET-Go! ® (Second generation) kit (eBioscience, San Diego, Calif., USA) according to the method of the manufacturer's guide, and the quantified results are illustrated in FIG. 15.
For the dose-dependent analysis of the top three compounds (S06690562, S01688300, S01382085) among the six compounds, the concentrations of the three compounds were varied to 12.5, 25, and 50 μM, and the secretion amount of IL-8 was analyzed as the above method. The results are illustrated in FIG. 16.

T1 sequence (O60603 21-784): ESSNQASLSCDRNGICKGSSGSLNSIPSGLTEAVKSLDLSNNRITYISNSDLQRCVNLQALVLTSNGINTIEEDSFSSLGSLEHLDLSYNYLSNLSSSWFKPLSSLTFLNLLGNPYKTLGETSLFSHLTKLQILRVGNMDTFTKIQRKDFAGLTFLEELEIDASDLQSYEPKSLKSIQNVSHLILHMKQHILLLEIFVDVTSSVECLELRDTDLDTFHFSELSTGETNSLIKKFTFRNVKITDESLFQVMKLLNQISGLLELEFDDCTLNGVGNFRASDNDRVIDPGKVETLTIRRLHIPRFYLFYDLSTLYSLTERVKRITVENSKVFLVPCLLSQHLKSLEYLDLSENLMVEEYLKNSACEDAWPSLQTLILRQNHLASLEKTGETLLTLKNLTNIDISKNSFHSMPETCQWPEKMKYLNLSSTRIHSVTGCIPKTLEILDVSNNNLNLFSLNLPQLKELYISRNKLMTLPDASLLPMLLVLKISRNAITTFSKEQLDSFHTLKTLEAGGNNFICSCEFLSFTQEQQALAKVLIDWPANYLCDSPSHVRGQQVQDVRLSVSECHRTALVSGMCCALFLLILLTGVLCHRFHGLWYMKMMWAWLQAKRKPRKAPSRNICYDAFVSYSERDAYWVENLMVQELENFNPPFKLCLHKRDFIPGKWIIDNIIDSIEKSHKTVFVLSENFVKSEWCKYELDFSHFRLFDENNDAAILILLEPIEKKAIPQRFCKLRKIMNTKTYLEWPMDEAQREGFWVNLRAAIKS

For `CC(C)Oc1cccc(CC(=O)N2CCCN(CC(N)=O)CC2)c1` [Compound S06696686], the “Pam3CSK4-induced IL-8 secretion amount” value is “greatly reduced”.

Regarding `CC1CCCN(C(C)CNC(=O)CCNC(=O)C2CC2C)C1` (centres unmarked) [Compound S02276077], the “Pam3CSK4-induced IL-8 secretion amount” value is recorded as “greatly reduced”.

As for `Cc1cc(C)c(NC(=O)CNC(=O)CN(C)CC(=O)NCC(F)(F)F)c(C)c1` [Compound S06690562], the “Pam3CSK4-induced IL-8 secretion amount” value was “greatly reduced”.

In the case of `CCN(Cc1ccncc1)Cc1cccc(OCC(O)CN2CCC(O)CC2)c1` (centres unmarked) [Compound S01688300], the “Pam3CSK4-induced IL-8 secretion amount” value was “greatly reduced”.

As to `COC(=O)c1c(NC(=O)NCCN2CCOCC2)sc2c1CCC2` [Compound S01382085], the “Pam3CSK4-induced IL-8 secretion amount” value was “greatly reduced”.

Source of the values: US10308655B2, “Method of treating Crohn's disease comprising a TLR2 antagonist” (AJOU UNIVERSITY INDUSTRY-ACADEMIC COOPERATION FOUNDATION, priority 2015, dated 2019).
